Biological target: T1, PRKCN (PKD3) (Homo sapiens, UniProt O94806)
T1 construct: purchased Thermo Fisher Scientific (Life Technologies) SelectScreen
Assay: SelectScreen Z'LYTE
Format: biochemical
How it was run: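 Percent values come from Thermo SelectScreen profiling of NU5455, combining activity and binding assays. CSF1R was run in Z'LYTE format at Km app ATP, and CAMK1 in Adapta format with ATP listed at 10.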

T1 sequence (O94806 whole entry): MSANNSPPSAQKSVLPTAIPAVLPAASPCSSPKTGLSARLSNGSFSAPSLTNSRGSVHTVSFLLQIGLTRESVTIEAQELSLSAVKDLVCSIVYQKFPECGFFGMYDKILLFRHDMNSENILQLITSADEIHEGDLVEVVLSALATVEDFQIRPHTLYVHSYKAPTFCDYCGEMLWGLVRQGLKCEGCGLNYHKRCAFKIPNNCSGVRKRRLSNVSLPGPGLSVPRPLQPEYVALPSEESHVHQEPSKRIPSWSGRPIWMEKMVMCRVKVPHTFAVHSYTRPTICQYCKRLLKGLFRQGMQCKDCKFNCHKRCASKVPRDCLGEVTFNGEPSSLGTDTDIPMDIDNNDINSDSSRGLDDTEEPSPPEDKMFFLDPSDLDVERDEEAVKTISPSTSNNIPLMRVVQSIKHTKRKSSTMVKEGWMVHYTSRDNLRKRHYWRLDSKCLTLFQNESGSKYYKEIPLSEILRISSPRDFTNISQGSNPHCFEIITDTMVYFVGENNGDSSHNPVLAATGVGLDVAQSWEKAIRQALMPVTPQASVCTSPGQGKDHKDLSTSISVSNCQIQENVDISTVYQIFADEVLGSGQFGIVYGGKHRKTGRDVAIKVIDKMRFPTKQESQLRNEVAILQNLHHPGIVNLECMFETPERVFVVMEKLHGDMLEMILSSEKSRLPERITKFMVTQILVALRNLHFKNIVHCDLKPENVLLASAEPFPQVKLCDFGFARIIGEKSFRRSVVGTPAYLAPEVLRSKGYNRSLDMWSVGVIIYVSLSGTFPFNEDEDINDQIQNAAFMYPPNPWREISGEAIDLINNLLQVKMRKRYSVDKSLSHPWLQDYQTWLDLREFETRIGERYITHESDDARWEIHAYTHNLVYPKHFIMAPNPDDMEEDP

CN(C(=O)CN1CCOCC1)c1ccc2sc3c(-c4cccc5c(=O)cc(N6CC7CCC(C6)O7)oc45)cccc3c2c1 [NU5455]
inhibition at 1 µM: 10.7%
